Results reported in patent US4415567A, “7α-Methoxycephalosporin derivatives, and antibacterial drugs containing the same” (Eisai Co., Ltd., priority 1980, dated 1983).
Values after ≈ are worked out from the molar mass of the structure shown. Structures can show the parent of a compound that is named as a salt. Where two headings read alike, the source gives them in different places.

Legend:
[1] = acute toxicity, LD50 (mouse, oral); conditions: in vivo
Description: The acute toxicity values [LD50 (mouse, oral)] for the following compounds of this invention were over 5 g/kg: […]

[2] = tested on: Staphylococcus aureus 209-P; assay: MIC, standard agar dilution method, Staphylococcus aureus 209-P; type: cell-based; conditions: Mueller Hinton agar, 18 hours, 37° C.
Protocol: (§1) Minimal inhibitory concentration (MIC) was determined by the standard agar dilution method of the Japan Society of Chemotherapy.
(§2) Compounds were dissolved in appropriate solvents (sterilized water for sodium salts and acetone-water [1:1] for free acids) and serial two-fold dilutions were made. Sodium salt of Cefazolin was chosen as the control compound.
(§3) One-ml aliquots of each dilution were mixed with 9 ml of Mueller Hinton gar in petri-dishes to make agar plates containing the compound at serially diluted concentrations. After agar hardened, plates were put in an incubator at 37° C. for 1.5-2 hours with the lids slightly open to evaporate acetone off the plates.
(§4) Test organisms were grown for 18 hours at 37° C. in Trypticase Soy broth and diluted in saline to approximately 10^6 colony forming units per ml. A loopful of each cell suspension was applied on the agar plate mentioned above and the plates were incubated for 18 hours at 37° C. before MIC was determined.
(§5) The results are shown in Table 2, wherein the compound of Example 5 was selected and used in a form of free carboxylic acid as set forth in the Example 5, Item (a).

[3] = tested on: Escherichia coli NIHJ; assay: MIC, standard agar dilution method, Escherichia coli NIHJ; type: cell-based
Protocol: as §1, §2, §3, §4, §5

[4] = tested on: Klebsielle pneumoniae EK-6; assay: MIC, standard agar dilution method, Klebsielle pneumoniae EK-6; type: cell-based
Protocol: as §1, §2, §3, §4, §5

[5] = tested on: Proteus morganii EP-14; assay: MIC, standard agar dilution method, Proteus morganii EP-14; type: cell-based; conditions: Morganella morganii, EP14, Mueller Hinton agar, 18 hours, 37° C.
Protocol: as §1, §2, §3, §4, §5

[6] = tested on: Pseudomonas aeruginosa EP-172; assay: MIC, standard agar dilution method, Pseudomonas aeruginosa EP-172; type: cell-based; conditions: EP172, Mueller Hinton agar, 18 hours, 37° C.
Protocol: as §1, §2, §3, §4, §5

[7] = tested on: Serratia marcescens ES-75; assay: MIC, standard agar dilution method, Serratia marcescens ES-75; type: cell-based; conditions: ES75, Mueller Hinton agar, 18 hours, 37° C.
Protocol: as §1, §2, §3, §4, §5

[8] = tested on: Proteus bulgaris E-18; assay: MIC, standard agar dilution method, Proteus bulgaris E-18; type: cell-based; conditions: Mueller Hinton agar, 18 hours, 37° C.
Protocol: as §1, §2, §3, §4, §5

[9] = Escherichia coli NIHJ, Mueller Hinton agar, 18 hours, 37° C., read-out: MIC
[10] = Klebsielle pneumoniae EK-6, Mueller Hinton agar, 18 hours, 37° C., read-out: MIC

SMILES	LD50 [1]	MIC [2]	MIC [3, 9]	MIC [4, 10]	MIC [5]	MIC [6]	MIC [7]	MIC [8]	MIC ([3]; Escherichia coli, 18 h)	MIC ([4]; 18 h)
CO[C@@]1(NC(=O)[C@H](NC(=O)c2coc3cc(O)c(O)cc3c2=O)c2ccc(O)cc2)C(=O)N2C(C(=O)O)=C(CSc3nnnn3CC(=O)O)CS[C@@H]21 [Example 16, 7β-[D-2-(6,7-Dihydroxychromone-3-carboxamido)-2-(4-hydroxyphenyl)acetamido]-7α-methoxy-3-1-carboxymethyl-5-tetrazolyl)thiomethyl-3-cephem-4-carboxylic acid disodium salt]	> 5000 mg/kg	–	–	–	–	–	–	–	–	–
CCOC(=O)Oc1cc2occ(C(=O)N[C@@H](C(=O)N[C@]3(OC)C(=O)N4C(C(=O)O)=C(CSc5nnnn5CC(=O)OC)CS[C@@H]43)c3ccc(O)cc3)c(=O)c2cc1OC(=O)OCC [Example 20, 7β-[D-2-(6,7-Bis(ethoxycarbonyloxy)chromone-3-carboxamido)-2-(4-hydroxyphenyl)acetamido]-7α-methoxy-3-(1-methoxycarbonylmethyl-5-tetrazolyl)thiomethyl-3-cephem-4-carboxylic acid]	> 5000 mg/kg	6.25 µg/mL (≈ 6.84 µM)	3.13 µg/mL (≈ 3.43 µM)	≤ 0.1 µg/mL	6.25 µg/mL (≈ 6.84 µM)	0.4 µg/mL (≈ 0.438 µM)	0.2 µg/mL (≈ 0.219 µM)	0.8 µg/mL (≈ 0.875 µM)	–	–
CO[C@@]1(NC(=O)[C@H](NC(=O)c2coc3cc(OC(=O)OCC(Cl)(Cl)Cl)c(OC(=O)OCC(Cl)(Cl)Cl)cc3c2=O)c2ccc(O)cc2)C(=O)N2C(C(=O)O)=C(CSc3nnnn3C)CS[C@@H]21 [Example 23, 7β-[D-2-(6,7-Bis(2,2,2-trichloroethoxycarbonyloxy)chromone-3-carboxamido)-2-(4-hydroxyphenyl)-acetamido]-7α-methoxy-3-(1-methyl-5-tetrazolyl)thiomethyl-3-cephem-4-carboxylic acid]	> 5000 mg/kg	3.13 µg/mL (≈ 2.95 µM)	6.25 µg/mL (≈ 5.88 µM)	≤ 0.1 µg/mL	6.25 µg/mL (≈ 5.88 µM)	0.8 µg/mL (≈ 0.753 µM)	0.2 µg/mL (≈ 0.188 µM)	0.8 µg/mL (≈ 0.753 µM)	–	–
CO[C@@]1(NC(=O)[C@H](NC(=O)c2coc3cc(O)c(O)cc3c2=O)c2ccc(O)cc2)C(=O)N2C(C(=O)O)=C(CSc3nnc(C)s3)CS[C@@H]21 [7β-[D-2-(6,7-Dihydroxychromone-3-carboxamido)-2-(4-hydroxyphenyl)acetamido]-7α-methoxy-3-[5-methyl-2-(1,3,4-thiadiazolyl)]thiomethyl-3-cephem-4-carboxylic acid]	> 5000 mg/kg	–	–	–	–	–	–	–	–	–
CO[C@@]1(NC(=O)[C@H](NC(=O)c2coc3cc(O)c(O)cc3c2=O)c2ccc(O)cc2)C(=O)N2C(C(=O)O)=C(CSc3nnnn3C)CS[C@@H]21 [Example 3, 7β-[D-2-(6,7-Dihydroxychromone-3-carboxamido)-2-(4-hydroxyphenyl)acetamido]-7α-methoxy-3-(1-methyl-5-tetrazolyl)thiomethyl-3-cephem-4-carboxylic acid]	> 5000 mg/kg	3.13 µg/mL (≈ 4.4 µM)	0.4 µg/mL (≈ 0.562 µM)	≤ 0.1 µg/mL	3.13 µg/mL (≈ 4.4 µM)	0.8 µg/mL (≈ 1.12 µM)	≤ 0.1 µg/mL	0.8 µg/mL (≈ 1.12 µM)	–	–
CCOC(=O)Oc1cc2occ(C(=O)N[C@@H](C(=O)N[C@]3(OC)C(=O)N4C(C(=O)O)=C(CSc5nnnn5CC(=O)O)CS[C@@H]43)c3ccc(O)cc3)c(=O)c2cc1OC(=O)OCC [Example 27, 7β-[D-2-(6,7-Bis(ethoxycarbonyloxy)chromone-3-carboxamido)-2-(4-hydroxyphenyl)acetamido]-7α-methoxy-3-(1-carboxymethyl-5-tetrazolyl)thiomethyl-3-cephem-4-carboxylic acid]	–	3.13 µg/mL (≈ 3.48 µM)	3.13 µg/mL (≈ 3.48 µM)	≤ 0.1 µg/mL	6.25 µg/mL (≈ 6.95 µM)	0.8 µg/mL (≈ 0.889 µM)	0.2 µg/mL (≈ 0.222 µM)	0.8 µg/mL (≈ 0.889 µM)	–	–
COC(=O)Cn1nnnc1SCC1=C(C(=O)O)N2C(=O)[C@](NC(=O)[C@H](NC(=O)c3coc4cc(OC(=O)OCC(Cl)(Cl)Cl)c(OC(=O)OCC(Cl)(Cl)Cl)cc4c3=O)c3ccc(O)cc3)(OC)[C@H]2SC1 [Example 26, 7β-[D-2-(6,7-Bis(2,2,2-trichloroethoxycarbonyloxy)chromone-3-carboxamido)-2-(4-hydroxyphenyl)acetamido]-7α-methoxy-3-(1-methoxycarbonylmethyl-5-tetrazolyl)thiomethyl-3-cephem-4-carboxylic acid]	–	12.5 µg/mL (≈ 11.2 µM)	6.25 µg/mL (≈ 5.58 µM)	≤ 0.1 µg/mL	6.25 µg/mL (≈ 5.58 µM)	1.56 µg/mL (≈ 1.39 µM)	0.2 µg/mL (≈ 0.178 µM)	0.8 µg/mL (≈ 0.714 µM)	–	–
CO[C@@]1(NC(=O)[C@H](NC(=O)c2coc3c(O)c(O)ccc3c2=O)c2ccc(O)cc2)C(=O)N2C(C(=O)O)=C(CSc3nnnn3C)CS[C@@H]21 [Example 4, 7β-[D-2-(7,8-Dihydroxychromone-3-carboxyamido)-2-(4-hydroxyphenyl)acetamido]-7α-methoxy-3-(1-methyl-5-tetrazolyl)thiomethyl-3-cephem-4-carboxylic acid]	–	3.13 µg/mL (≈ 4.4 µM)	3.13 µg/mL (≈ 4.4 µM)	≤ 0.1 µg/mL	50 µg/mL (≈ 70.3 µM)	0.8 µg/mL (≈ 1.12 µM)	0.8 µg/mL (≈ 1.12 µM)	3.13 µg/mL (≈ 4.4 µM)	–	–
COC(=O)Cn1nnnc1SCC1=C(C(=O)O)N2C(=O)[C@](NC(=O)[C@H](NC(=O)c3coc4cc(O)c(O)cc4c3=O)c3ccc(O)cc3)(OC)[C@H]2SC1 [Example 19, 7β-[D-2-(6,7-Dihydroxychromone-3-carboxamido)-2-(4-hydroxyphenyl)acetamido]-7α-methoxy-3-(1-methoxycarbonylmethyl-5-tetrazolyl)thiomethyl-3-cephem-4-carboxylic acid]	–	3.13 µg/mL (≈ 4.07 µM)	1.56 µg/mL (≈ 2.03 µM)	≤ 0.1 µg/mL	1.56 µg/mL (≈ 2.03 µM)	0.8 µg/mL (≈ 1.04 µM)	≤ 0.1 µg/mL	0.4 µg/mL (≈ 0.52 µM)	–	–
Cc1nnc(SCC2=C(C(=O)O)N3C(=O)[C@@H](NC(=O)Cn4cnnn4)[C@H]3SC2)s1 [Control, Sodium salt of Cefazolin, reference compound]	–	0.4 µg/mL	–	–	> 100 µg/mL	> 100 µg/mL	> 100 µg/mL	> 3200 µg/mL	1.56 µg/mL	1.56 µg/mL
CCn1nnnc1SCC1=C(C(=O)O)N2C(=O)[C@](NC(=O)[C@H](NC(=O)c3coc4cc(O)c(O)cc4c3=O)c3ccc(O)cc3)(OC)[C@H]2SC1 [Example 32, 7β-[D-2-(6,7-Dihydroxychromone-3-carboxamido)-2-(4-hydroxyphenyl)acetamido]-7α-methoxy-3-(1-ethyl-5-tetrazolyl)thiomethyl-3-cephem-4-carboxylic acid]	–	1.56 µg/mL (≈ 2.15 µM)	3.13 µg/mL (≈ 4.31 µM)	≤ 0.1 µg/mL	12.5 µg/mL (≈ 17.2 µM)	0.4 µg/mL (≈ 0.551 µM)	0.2 µg/mL (≈ 0.276 µM)	1.56 µg/mL (≈ 2.15 µM)	–	–
CO[C@@]1(NC(=O)[C@H](NC(=O)c2coc3cc(O)c(O)cc3c2=O)c2ccccc2)C(=O)N2C(C(=O)O)=C(COC(C)=O)CS[C@@H]21 [Example 5, 7β-[D-2-(6,7-Dihydroxychromone-3-carboxamido)-2-phenylacetamido]-7α-methoxy-3-acetoxymethyl-3-cephem-4-carboxylic acid]	–	3.13 µg/mL (≈ 4.89 µM)	0.8 µg/mL (≈ 1.25 µM)	≤ 0.1 µg/mL	25 µg/mL (≈ 39.1 µM)	3.13 µg/mL (≈ 4.89 µM)	0.2 µg/mL (≈ 0.313 µM)	0.8 µg/mL (≈ 1.25 µM)	–	–
